pIC50: −log10 of the molar value.

This assay relates to HIV-1LAI. The assay is described as follows: Antiviral activity in MT-2 human T-lymphoid cells exposed to HIV-1LAI. The assay is classed as cell-based.

As a reminder, the pIC50 is −log10 of the IC50, conventionally taken in molar units. For the molecule `CC(C)(C)NC(=O)[C@@H]1C[C@@H]2CCCC[C@@H]2CN1C[C@@H](O)[C@H](Cc1ccccc1)NC(=O)[C@H](CC(N)=O)NC(=O)c1ccc2ccccc2n1` [SQV, saquinavir], the negative logarithm of the IC50 (pIC50) (Human immunodeficiency virus 1, MT2, in Homo sapiens, read-out: antiviral IC50) is 7.68.

In the case of `COc1ccc(S(=O)(=O)N(CC(C)C)C[C@@H](O)[C@H](Cc2ccccc2)NC(=O)O[C@H]2C[C@H]3CO[C@H]4OCC[C@@H]2[C@@H]34)cc1` [Inhibitor 4c, (2aR,2a^1R,4S,4aR,7aR)-Octahydro-2H-1,7-dioxacyclopenta[cd]inden-4-yl ((2S,3R)-3-hydroxy-4-((N-isobutyl-4-methoxyphenyl)sulfonamido)-1-phenylbutan-2-yl)carbamate], the “improvement in antiviral activity compared to inhibitor 4b” value (MT-2 cells exposed to HIV-1LAI, versus 4b) worked out at 4 fold.

These data come from paper PMC6044451 (Journal of medicinal chemistry, 2018).
